Assay results as given in ChEMBL document CHEMBL3813691, “Quantitative relationships between structure and cytotoxic activity of flavonoid derivatives. An application of Hirshfeld surface derived descriptors” (Bioorg Med Chem Lett, 2016).
pIC50: −log10 of the molar value.

What was measured:
[1] = Cytotoxicity against human HL60 cells assessed as reduction in cell survival after 46 hrs by MTT assay; format: functional, cell-based; details: HL-60, 46 h
[2] = system: HUVEC; assay: Cytotoxicity against HUVEC assessed as reduction in cell survival after 46 hrs by MTT assay; format: cell-based; details: Homo sapiens
[3] = Selectivity ratio of IC50 for HUVEC to IC50 for human HL60 cells; format: cell-based, HL-60; details: HUVEC and HL60 cells, read-out: Ratio IC50
[4] = Cytotoxicity against human HL60 cells assessed as reduction in cell survival; format: functional, cell-based; details: HL-60

Structure (SMILES) | pIC50 [1] | other results
Oc1ccc(C2NN=C3c4ccccc4OC(c4ccccc4)C32)cc1 (stereo not drawn) | 4.38 | –
COc1cccc(C2C3C(=NN2C)c2ccccc2OC3c2ccccc2)c1 (stereo not drawn) | 4.15 | –
CN1N=C2c3ccccc3OC(c3ccccc3)C2C1c1cccc(C#N)c1 (stereo not drawn) | 4.18 | –
O=C1/C(=C/c2ccc(Cl)cc2)C(c2ccccc2)Oc2ccccc21 (stereo not drawn) | – | pIC50 [2]: 5.16
COc1cccc(C2CN=NC23C(=O)c2ccccc2OC3c2ccccc2)c1 (stereo not drawn) | 4.13 | –
CN1N=C2c3cc(O)ccc3OC(c3ccccc3)C2C1c1ccccc1 (stereo not drawn) | 4.42 | –
COc1ccc(C2C3C(=NN2C)c2ccccc2OC3c2ccccc2)cc1 (stereo not drawn) | 3.27 | –
CN1N=C2c3ccccc3OC(c3ccccc3)C2C1c1ccc(C#N)cc1 (stereo not drawn) | 4.70 | –
Oc1ccc2c(c1)C1=NNC(c3ccccc3)C1C(c1ccccc1)O2 (stereo not drawn) | 4.56 | –
O=C1/C(=C\c2ccccc2)C(c2ccccc2)Oc2ccccc21 (stereo not drawn) | 4.48 | –
CN1N=C2c3ccccc3OC(c3ccccc3)C2C1c1ccc(O)cc1 (stereo not drawn) | 4.32 | –
Cc1cccc(C2C3C(=NN2C)c2ccccc2OC3c2ccccc2)c1 (stereo not drawn) | 4.22 | –
O=C(/C=C/c1ccccc1Cl)c1ccccc1O | – | pIC50 [2]: 5.11
CN1N=C2c3ccccc3OC(c3ccccc3)C2C1c1ccc(F)cc1 (stereo not drawn) | 4.01 | –
c1ccc(C2Oc3ccccc3C3=NNC(c4ccncc4)C32)cc1 (stereo not drawn) | 4.30 | –
N#Cc1cccc(C2CN=NC23C(=O)c2ccccc2OC3c2ccccc2)c1 (stereo not drawn) | 4.12 | –
Oc1cccc(C2NN=C3c4ccccc4OC(c4ccccc4)C32)c1 (stereo not drawn) | 4.30 | –
CN1N=C2c3ccccc3OC(c3ccccc3)C2C1c1ccccc1 (stereo not drawn) | 4.27 | –
CN1N=C2c3ccccc3OC(c3ccccc3)C2C1c1ccc(Cl)cc1 (stereo not drawn) | 5.13 | selectivity ratio [3]: 10; pIC50 [2]: 4.15
O=C1c2ccccc2OC(c2ccccc2)C12N=NCC2c1ccc([N+](=O)[O-])cc1 (stereo not drawn) | 4.26 | –
Cc1ccc(C2C3C(=NN2C)c2ccccc2OC3c2ccccc2)cc1 (stereo not drawn) | 4.56 | –
CN1N=C2c3ccccc3OC(c3ccccc3)C2C1c1cccc(O)c1 (stereo not drawn) | 3.46 | –
CN1N=C2c3ccccc3OC(c3ccccc3)C2C1c1ccc(Br)cc1 (stereo not drawn) | 5.12 | selectivity ratio [3]: 25; pIC50 [2]: 3.74
COc1cc([C@@H]2c3cc4c(cc3[C@@H](O[C@@H]3O[C@@H]5CO[C@@H](C)O[C@H]5[C@H](O)[C@H]3O)[C@H]3COC(=O)[C@H]23)OCO4)cc(OC)c1O [ETOPOSIDE] | – | pIC50 [4]: 7.60
